Measured values: US11066436B2, “5′-phosphorothiolate mRNA 5′-end (cap) analogs, mRNA comprising the same, method of obtaining and uses thereof” (Uniwersytet Warszawski, priority 2016, dated 2021)

Columns and labels:
[1] = target: T1, Dcp1/2 decapping enzyme (SpDcp1/2) (Schizosaccharomyces pombe, UniProt O13828); assay: Susceptibility of short capped RNAs to degradation with the Dcp1/2 enzyme; assay type: biochemical; settings: RNA capped with the analog; 3.5 nM Dcp1/2, time point 15 min, normalized to 0′ time
T1 construct: made in house
T1 sequence (O13828 1-243 limits assumed): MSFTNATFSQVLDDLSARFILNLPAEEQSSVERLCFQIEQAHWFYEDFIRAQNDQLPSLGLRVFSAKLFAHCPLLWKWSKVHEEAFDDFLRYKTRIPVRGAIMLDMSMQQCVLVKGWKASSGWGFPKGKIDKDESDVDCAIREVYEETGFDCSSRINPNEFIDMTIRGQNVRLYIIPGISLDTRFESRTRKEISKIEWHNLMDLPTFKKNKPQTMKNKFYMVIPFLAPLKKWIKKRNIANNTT
T1 sequence (Q9P805 1-127 partner): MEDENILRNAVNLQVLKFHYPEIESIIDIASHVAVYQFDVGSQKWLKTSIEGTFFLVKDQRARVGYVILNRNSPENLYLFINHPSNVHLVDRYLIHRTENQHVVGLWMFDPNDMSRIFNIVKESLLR
Source text: Test 4. Susceptibility Study of Short RNA Molecules Comprising Cap Analogs at the 5′ End to Degradation with the Dcp1/2 Enzyme.
The aim of this study was to check whether incorporation of selected 5′-phosphothioate cap analogs to 5′ end of RNA could influence susceptibility of thus prepared transcripts towards Dcp1/2 decapping enzyme activity. Schizosaccharomyces pombe recombinant protein in the form of a heterodimer Dcp1/2 was obtained as described previously (Floor, Jones et al. 2010). The trancripts utilized in this assay were obtained by transcription in vitro using RNA SP6 polymerase (New England BioLabs). Annealed oligonucleotides: […] (SEQ ID NO.: 1), and […] (SEQ ID NO: 2) were used as a template in in vitro transcription, the oligonucleotides comprising the promoter sequence for SP6 polymerase (ATTTAGGTGACACTATAGA (SEQ ID NO: 3)) allow to obtain 35 nt long RNAs having a sequence of […] (SEQ ID NO: 4), however 5′ end capped RNAs are 36 nt long. Typical in vitro transcription reaction was performed in volume 20 μl and was incubated in 40° C. for 2 hours and contained the following: 1U SP6 polymerase, 1 U RiboLock RNase Inhibitor (ThermoFisher Scientific), 0.5 mM ATP/CTP/UTP, 0.125 mM GTP, 1.25 mM dinucleotide cap analog and 0.1 μM template. Following 2 hours incubation, 1U DNase I (Ambion) was added to the reaction mixture and incubation was continued for 30 min in 37° C., after that EDTA was added to 25 mM final concentration. Obtained RNAs were purified using RNA Clean & Concentrator-25 (Zymo Research). Then the quality of the synthesized RNA was determined on a denaturating 15% polyacrylamide gel. The concentration of the RNA was in turn evaluated spectrophotometrically. […] RNA having a cap at the 5′ end was 26 nt long. The reaction of cleaving the 3′ ends was as follows: 1 μM of RNA was incubated with 1 μM of DNazyme 10-23 in a mixture containing 50 mM MgCl2 and 50 mM Tris-HCl pH 8.0 for 1 hour in 37° C. (Coleman et al., 2004).
For enzymatic tests 20 ng of each RNA was used, which were incubated with 3.5 nM Dcp1/2 enzyme in buffer containing 50 mM Tris-HCl pH 8.0, 50 mM NH4Cl, 0.01% NP-40, 1 mM DTT, and 5 mM MgCl2. Reactions were performed at 37° C. in the final volume of 25 μl. The reaction was stopped after 0, 5, 15 and 30 min by adding an equal amount of a mixture of 5 M urea, 44% formamide, 20 mM EDTA, 0.03% bromophenol blue, 0.03% xylene cyanol. Reaction products were resolved on denaturing 15% polyacrylamide gels, after the electrophoretic separation was completed, the gel was stained with SYBR Gold (Invitrogen) and visualized using a Storm 860 PhosphorImager (GE Healthcare). Quantification of the obtained results was performed with ImageQuant software (Molecular Dynamics). Representative results of this assay were presented on FIG. 8, FIG. 9 and also in Table 6.

[2] = test system: rabbit reticulocyte lysate; assay: Translational efficiency of capped Renilla luciferase mRNAs in rabbit reticulocyte lysate; assay type: biochemical; settings: Renilla luciferase mRNA capped with the analog; normalized to m^7GpppG-capped mRNA; biological triplicates
Description: Test 5. Study on the Effect of the Presence of Novel Cap Analogs on Translational Efficiency of mRNAs in Rabbit Reticulocyte Lysate.
The aim of this study was to check the effect of introducing novel cap analogs at the 5′ end of mRNAs on translation efficiency. For this purpose series of Renilla luciferase encoding mRNAs, and differing in the cap structure at the 5′ end were prepared. The transcripts used for this test were obtained by in vitro transcription reaction using SP6 RNA polymerase. As the template for the in vitro transcription a PCR product was used, prepared using primers […] (SEQ ID NO: 6) and […] (SEQ ID NO: 7) and the hRLuc-pRNA2(A)128 plasmid (Williams et al. 2010). PCR reaction thus conducted allowed to introduce promoter sequence for SP6 polymerase upstream of the sequence encoding Renilla luciferase. The transcription reaction itself was similar to the short RNA synthesis described above (Test 4). The reaction was conducted for 2 hours in 20 μl in 40° C. and contained the following: 1U SP6 polymerase, 1 U RiboLock RNase Inhibitor (ThermoFisher Scientific), 0.5 mM ATP/CTP/UTP, 0.125 mM GTP, 1.25 mM dinucleotide cap analog and […] of a template. Following 2 hours incubation, 1U DNase I (Ambion) was added and incubation was continued for 30 min in 37° C., after that EDTA was added to 25 mM final concentration. Obtained mRNAs were purified using NucleoSpin RNA Clean-up XS (Macherey-Nagel). Quality of the synthetized RNA was checked on a denaturing 15% polyacrylamide gel. The RNA concentrations were determined spectrophotometrically.
An in vitro translation reaction was performed in rabbit reticulocyte lysate (RRL, Promega) in conditions determined for cap-dependent translation (Rydzik et al., 2009). A typical reaction mixture (10 μl) contained: 40% RRL lysate, 0.01 mM mixture of amino acids (Promega), 1.2 mM MgCl2, 170 mM potassium acetate and a Renilla luciferase encoding mRNA with an appropriate cap analog at the 5′ end, the mixture being incubated in 37° C. for 1 hour. Four different concentrations of mRNAs: 0.1 ng/μl, 0.25 ng/μl, 0.5 ng/μl, 0.75 ng/μl were used in the experiment. Activity of synthesized luciferase was measured using Dual-Luciferase Reporter Assay System (Promega) in a microplate reader Synergy H1 (BioTek). Obtained results were analyzed in Origin (Gambit) software, and theoretical curve was fitted to experimental data, wherein the slope of obtained curve represents translation efficiency. Representative data were presented on FIG. 10, whereas average translation efficiency obtained for biological triplicates is presented in Table 6.

[3] = target: T2, human DcpS enzyme (hDcpS) (Homo sapiens, UniProt Q96C86); assay: Susceptibility of cap analogs to degradation by DcpS enzyme (RP-HPLC); assay type: biochemical; settings: cap analog 20 μM, hDcpS 100 nM, RP-HPLC
T2 construct: made in house
T2 sequence (Q96C86 1-337): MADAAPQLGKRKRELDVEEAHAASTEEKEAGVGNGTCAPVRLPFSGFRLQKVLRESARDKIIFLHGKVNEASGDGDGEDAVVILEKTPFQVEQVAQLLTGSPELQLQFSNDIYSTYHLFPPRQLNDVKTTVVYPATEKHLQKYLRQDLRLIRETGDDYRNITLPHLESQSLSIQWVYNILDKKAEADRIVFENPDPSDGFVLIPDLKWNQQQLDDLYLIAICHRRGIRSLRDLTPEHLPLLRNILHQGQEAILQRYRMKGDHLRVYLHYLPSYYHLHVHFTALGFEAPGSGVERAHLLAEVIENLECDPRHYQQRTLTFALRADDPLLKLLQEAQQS
Description: Test 1. The Susceptibility Study of Analogs to Degradation by DcpS Enzyme.
The aim of the test was to check if new 5′-thiophosphate cap analogs are hydrolyzed by human DcpS enzyme (hDcpS). Recombinant human protein encoding DcpS enzyme was expressed as described previously (Kowalska, Lewdorowicz et al. 2008). The susceptibility of new analogs to hDcpS hydrolysis is tested in 50 mM Tris-HCl buffer containing 200 mM KCl and 0.5 mM EDTA. Reaction mixture includes the tested cap analog (20 μM) and hDcpS enzyme (100 nM) in 400 μl of buffer. At the appropriate intervals 100 μl sample is collected from the reaction mixture. Sample is incubated at 98° C. for 2.5 min, and then cooled to 0° C. and analyzed on RP-HPLC under conditions described in general informations. In tests also commercially available inhibitor of DcpS was tested, the compound RG3039 (no. 000) (https://www.mda.org/quest/fda-approves-phase-1-clinical-trial-rg3039-sma), GppSG (no. 19), GpppSG (no. 20), as well m^7GpppG (no. 0) and m^7Gpp (no. 00) as controls. Exemplary results obtained are shown on FIG. 5 and Table 5.

mice with SMA = settings: reported by Van Meerbeke, Gibbs et al.; cited from earlier work

Row | SMILES | Dcp1/2 susceptibility [1] | relative translation efficiency [2] | DcpS susceptibility [3] | motor function in mice with SMA (mice with SMA)
1 | COC1C(O)[C@@H](COP(=O)(O)OP(=O)(O)OP(=O)([O-])SC[C@H]2O[C@@H](n3cnc4c(=O)[nH]c(N)nc43)C(O)C2O)O[C@H]1n1c[n+](C)c2c(O)nc(N)nc21 (some centres unmarked) [No. 38, P1-(2′-O-methyl-7-methyl-guanosin-5′-yl)-P3-(5′-deoxy-5′-thioguanosin-5′-yl) triphosphate] | 0.52 | 2.23 ± 0.31 |  | 
2 | Cn1c[n+]([C@@H]2O[C@H](COP(=O)(O)OP(=O)([O-])OP(=O)(O)OC[C@H]3O[C@@H](n4cnc5c(=O)[nH]c(N)nc54)[C@H](O)[C@@H]3O)[C@@H](O)[C@H]2O)c2nc(N)[nH]c(=O)c21 [No. 0] | 0.69 | 1.00 | hydrolyzable | 
3 | COC1C(O)C(COP(=O)(O)OP(=O)(S)OP(=O)(O)OCC2OC(n3cnc4c(=O)[nH]c(N)nc43)C(O)C2O)OC1n1c[n+](C)c2c(=O)[nH]c(N)nc21 (centres unmarked) [m2^7,2′-oGppspG D2] | 0.43 | 3.45 ± 0.42 |  | 
4 | COC1C(O)[C@@H](CSP(=O)([O-])OP(=O)(O)OP(=O)(O)OC[C@H]2O[C@@H](n3cnc4c(=O)[nH]c(N)nc43)C(O)C2O)O[C@H]1n1c[n+](C)c2c(O)nc(N)nc21 (some centres unmarked) [No. 26, P1-(2′-O-methyl-7-methyl-5′-deoxy-5′-thioguanosin-5′-yl)-P3-guanosin-5′-yl triphosphate] | 0.07 | 1.73 ± 0.24 |  | 
5 | Nc1nc(N)c2c(OCC3CCN(Cc4c(Cl)cccc4Cl)CC3)cccc2n1 [No. 000] |  |  |  | improves motor function
6 | CO[C@@H]1[C@H](O)[C@@H](COP(=O)(O)OP(=O)([O-])OP(=O)(O)OC[C@H]2O[C@@H](n3cnc4c(=O)[nH]c(N)nc43)[C@H](O)[C@@H]2O)O[C@H]1n1c[n+](C)c2c(O)nc(N)nc21 [m2^7,2′-oGpppG] | 0.52 | 1.56 ± 0.14 |  | 
7 | Nc1nc2c(ncn2[C@@H]2O[C@H](COP(=O)(O)OP(=O)(O)OP(=O)(O)OC[C@H]3O[C@@H](n4cnc5c(=O)[nH]c(N)nc54)[C@H](O)[C@@H]3O)[C@@H](O)[C@H]2O)c(=O)[nH]1 [GpppG] | 0 | 0.05 ± 0.01 |  | 
